The values below come from US7776862B2, “Pyridyl and phenyl substituted piperazine-piperidines with CXCR3 antagonist activity” (Schering Corporation, priority 2005, dated 2010).

For this test, the target named is T1, human CXCR3 (N-delta 4) (Homo sapiens, UniProt P49682).
T1 construct: CD8 leader; Flag tag; expressed in transfected cells; membranes used
T1 sequence (P49682 5-368 limits assumed): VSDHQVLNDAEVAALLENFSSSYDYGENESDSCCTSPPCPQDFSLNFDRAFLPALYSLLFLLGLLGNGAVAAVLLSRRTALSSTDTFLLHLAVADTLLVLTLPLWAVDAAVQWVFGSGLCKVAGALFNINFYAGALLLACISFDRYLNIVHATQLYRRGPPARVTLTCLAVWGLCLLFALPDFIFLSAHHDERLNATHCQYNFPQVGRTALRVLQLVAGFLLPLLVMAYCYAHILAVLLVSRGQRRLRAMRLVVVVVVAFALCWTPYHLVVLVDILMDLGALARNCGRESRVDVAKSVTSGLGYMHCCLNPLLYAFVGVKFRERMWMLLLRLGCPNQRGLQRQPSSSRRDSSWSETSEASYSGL
In words: Human CXCR3 (N-delta 4) scintillation proximity assay (SPA), [125I] IP-10 binding. To be noted: IC50 rating; Ba/F3-hCXCR3 (N-delta 4) membranes, 25 pM [125I] IP-10. In a few lines: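 IP-10 and compound titrations added together. The receptor source was SPA beads bearing membranes from Ba/F3 cells transfected with human CXCR3 (N-delta 4) carrying a CD8 leader and Flag tag.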
Regarding `O=C(NCc1cccc(Cl)c1)c1cnc(N2CCN(C3CCN(Cc4ccc([N+](=O)[O-])cc4)CC3)CC2)c(Cl)c1` [compound 148], the concentration for half-maximal inhibition (IC50) – broadly, the point on the concentration scale where inhibition reaches its midpoint – was 25 to 100 nM.

Molecule `O=C(NCc1ccc(Cl)cc1Cl)c1cnc(N2CCN(C3CCN(Cc4ccc(Cl)cc4)CC3)CC2)c(Cl)c1` [compound 149] gave an IC50 of 25 to 100 nM.

The molecule `O=C(NCc1ccc(F)c(Cl)c1)c1cnc(N2CCN(C3CCN(Cc4ccc(Cl)cc4)CC3)CC2)c(Cl)c1` [compound 150] yielded an IC50 of 25 to 100 nM.

`O=C(NCc1ccc(Cl)cc1)c1cnc(N2CCN(C3CCN(Cc4ccc(F)cc4)CC3)CC2)c(Cl)c1` [compound 151] displayed a 50% inhibitory concentration (IC50) of 25 to 100 nM.

In turn, `C[C@@H]1CN(c2ncc(C(=O)NCc3ccc(F)c(F)c3)cc2Cl)CCN1C1CCN(Cc2ccc(Cl)cc2)CC1` [compound 152] displayed an IC50 of 25 to 100 nM.

`O=C(NCc1ccc(Cl)cc1)c1cnc(N2CCN(C3CCN(Cc4ccc([N+](=O)[O-])cc4)CC3)CC2)c(Cl)c1` [compound 153] returned a 50% inhibitory concentration (IC50) of 25 to 100 nM.

`O=C(NCc1ccc(F)c(Cl)c1)c1cnc(N2CCN(C3CCN(Cc4ccc(F)c(F)c4)CC3)CC2)c(Cl)c1` [compound 154] showed a half-maximal inhibitory concentration (IC50) of 25 to 100 nM.

In turn, `O=C(NCc1ccc(Cl)cc1F)c1cnc(N2CCN(C3CCN(Cc4ccc([N+](=O)[O-])cc4)CC3)CC2)c(Cl)c1` [compound 155] gave a half-inhibitory concentration (IC50) of 25 to 100 nM.

The molecule `O=C(NCc1ccc(F)c(Cl)c1)c1cnc(N2CCN(C3CCN(Cc4ccc(Cl)c(F)c4)CC3)CC2)c(Cl)c1` [compound 156] returned an IC50 of 25 to 100 nM.

`O=C(NCc1ccc(Cl)cc1)c1cnc(N2CCN(C3CCN(Cc4ccc(F)c(F)c4)CC3)CC2)c(Cl)c1` [compound 157] registered a half-maximal inhibitory concentration (IC50) of 25 to 100 nM.

`O=C(NCc1ccc(F)c(Cl)c1)c1cnc(N2CCN(C3CCN(Cc4ccc([N+](=O)[O-])cc4)CC3)CC2)c(Cl)c1` [compound 158] returned a 50% inhibitory concentration (IC50) of 25 to 100 nM.

In turn, `CNC(=O)c1cnc(N2CCN(C3CCN(Cc4ccc(Cl)cc4)C(C)C3)[C@@H](C)C2)c(Cl)c1` (stereo partly shown) [compound 159] displayed an IC50 of 25 to 100 nM.

Molecule `CC[C@H]1CN(c2ncc(C(=O)NC(C)C)cc2Cl)CCN1C1CCN(C(=O)c2ccc(Cl)cc2)CC1` [compound 160] displayed a concentration for half-maximal inhibition (IC50) of 25 to 100 nM.

With `O=C(NCc1ccc(Cl)cc1)c1cnc(N2CCN(C3CCN(Cc4ccc(Cl)c(F)c4)CC3)CC2)c(Cl)c1` [compound 161], the half-inhibitory concentration (IC50) lay in the range of 25 to 100 nM.

`O=C(NCc1ccc(Cl)c(Cl)c1)c1cnc(N2CCN(C3CCN(Cc4ccc([N+](=O)[O-])cc4)CC3)CC2)c(Cl)c1` [compound 162] had a concentration for half-maximal inhibition (IC50) of less than 25 nM.

In turn, `CCNC(=O)c1cnc(N2CCN(C3CCN(Cc4ccc(Cl)cc4)CC3(C)C)CC2)c(Cl)c1` (stereo not shown) [compound 163] came in with an IC50 of less than 25 nM.

`O=C(NCc1ccc(F)c(F)c1)c1cnc(N2CCN(C3CCN(Cc4ccc([N+](=O)[O-])cc4)CC3)CC2)c(Br)c1` [compound 164]: the IC50 is less than 25 nM.

`O=C(NCCOc1ccccc1)c1cnc(N2CCN(C3CCN(Cc4ccc(-c5ccccc5)cc4)CC3)CC2)c(Cl)c1` [compound 165] gave a half-maximal inhibitory concentration (IC50) greater than 100 nM.

Regarding `O=C(NCc1ccccc1Cl)c1cnc(N2CCN(C3CCN(Cc4ccc(Cl)cc4)CC3)CC2)c(Cl)c1` [compound 166], the half-inhibitory concentration (IC50) was greater than 100 nM.

`O=C(NCC1CC1)c1cnc(N2CCN(C3CCN(Cc4ccc(Cl)cc4)CC3)CC2)c(Cl)c1` [compound 167] registered a half-maximal inhibitory concentration (IC50) greater than 100 nM.

Molecule `O=C(NC1CCCC1)c1cnc(N2CCN(C3CCN(Cc4ccc(Cl)cc4)CC3)CC2)c(Cl)c1` [compound 168] yielded a half-inhibitory concentration (IC50) greater than 100 nM.

For the molecule `O=C(NCCOc1ccccc1)c1cnc(N2CCN(C3CCN(Cc4ccc(OC(F)(F)F)cc4)CC3)CC2)c(Cl)c1` [compound 169], the IC50 was greater than 100 nM.

Molecule `O=C(NCc1ccc(F)c(F)c1)c1cnc(N2CC3CC2CN3C2CCN(Cc3ccc(Cl)cc3)CC2)c(Cl)c1` (stereo not shown) [compound 170] yielded an IC50 greater than 100 nM.

As for `CC(NC(=O)c1cnc(N2CCN(C3CCN(Cc4ccc(Cl)cc4)CC3)CC2)c(Cl)c1)c1ccc(Cl)cc1` (stereo not shown) [compound 171], the IC50 was in the range of 25 to 100 nM.

`CC(c1ccc(C#N)cc1)N1CCC(N2CCN(c3ncc(C(=O)NCc4ccc(F)c(F)c4)cc3Cl)CC2)CC1` (stereo not shown) [compound 172] had a half-inhibitory concentration (IC50) greater than 100 nM.

Turning to `C[C@@H]1CN(C2CCN(Cc3ccc(C#N)cc3)CC2)CCN1c1ncc(C(=O)NCc2ccc(Cl)c(Cl)c2)cc1Cl` [compound 173], the half-maximal inhibitory concentration (IC50) was greater than 100 nM.

`C[C@@H]1CN(C2CCN(Cc3ccc([N+](=O)[O-])cc3)CC2)CCN1c1ncc(C(=O)NCc2ccc(Cl)c(Cl)c2)cc1Cl` [compound 174]: the half-maximal inhibitory concentration (IC50) was in the range of 25 to 100 nM.

Molecule `C[C@H]1CN(C2CCN(Cc3ccc(Cl)cc3)CC2)CCN1c1ncc(C(=O)NCc2ccc(Cl)c(Cl)c2)cc1Cl` [compound 175] showed a half-inhibitory concentration (IC50) of 25 to 100 nM.

With `O=C(NCC1COc2ccccc2O1)c1cnc(N2CCN(C3CCN(Cc4ccc(Cl)cc4)CC3)CC2)c(Br)c1` (stereo not shown) [compound 176], the concentration for half-maximal inhibition (IC50) is greater than 100 nM.

With `CCCCNC(=O)c1cnc(N2CCN(C3CCN(Cc4ccc(Cl)cc4)CC3)CC2)c(Cl)c1` [compound 177], the IC50 was greater than 100 nM.

Regarding `O=C(NCC(c1ccccc1)c1ccccc1)c1cnc(N2CCN(C3CCN(Cc4ccc(Cl)cc4)CC3)CC2)c(Br)c1` [compound 178], the IC50 is greater than 100 nM.

In turn, `CC1(C)C2CCC(CNC(=O)c3cnc(N4CCN(C5CCN(Cc6ccc(Cl)cc6)CC5)CC4)c(Br)c3)C1C2` (stereo not shown) [compound 179] came in with an IC50 greater than 100 nM.

As to `CC(C)NC(=O)c1cnc(N2CCN(C3CCN(Cc4ccc(Cl)cc4)CC3)CC2)c(Cl)c1` [compound 180], the IC50 is greater than 100 nM.

In the case of `CC(C)CNC(=O)c1cnc(N2CCN(C3CCN(Cc4ccc(Cl)cc4)CC3)CC2)c(Cl)c1` [compound 181], the IC50 is greater than 100 nM.

In turn, `O=C(NCc1ccc(F)c(F)c1)c1cnc(N2CCN(C3CCN(Cc4ccc(Cl)cc4)CC3)CC2)c(I)c1` [compound 182] came in with a concentration for half-maximal inhibition (IC50) of less than 25 nM.

For the molecule `Cc1ccc(CN2CCC(N3CCN(c4ncc(C(=O)NCc5ccc(Cl)c(Cl)c5)cc4Cl)CC3)CC2)cc1` [compound 183], the IC50 was greater than 100 nM.

Take `O=C(NCC1CCCCC1)c1cnc(N2CCN(C3CCN(Cc4ccc(Cl)cc4)CC3)CC2)c(Cl)c1` [compound 184]: the concentration for half-maximal inhibition (IC50) was 25 to 100 nM.

`CC1CN(c2ncc(C(=O)NCc3ccc(Cl)c(Cl)c3)cc2Cl)CCN1C1CCN(Cc2ccc(Cl)cc2)CC1` (stereo not shown) [compound 185]: the half-maximal inhibitory concentration (IC50) was less than 25 nM.

`CC1CN(c2ncc(C(=O)NCc3ccc(Cl)c(Cl)c3)cc2Cl)CCN1C1CCN(Cc2ccc([N+](=O)[O-])cc2)CC1` (stereo not shown) [compound 186]: the IC50 is less than 25 nM.

`CC1CN(c2ncc(C(=O)NCc3ccc(F)c(F)c3)cc2Cl)CCN1C1CCN(Cc2ccc([N+](=O)[O-])cc2)CC1` (stereo not shown) [compound 187] came in with an IC50 of less than 25 nM.

Molecule `CC1CN(c2ncc(C(=O)NCc3ccc(F)c(F)c3)cc2Cl)CCN1C1CCN(Cc2ccc(Cl)cc2)CC1` (stereo not shown) [compound 188] showed a half-inhibitory concentration (IC50) of 25 to 100 nM.

Take `O=C(NC1CCCC1)c1cnc(N2CCN(C3CCN(Cc4ccc(Cl)cc4)CC3)CC2)c(Br)c1` [compound 189]: the 50% inhibitory concentration (IC50) was greater than 100 nM.

`N#Cc1ccc(CN2CCC(N3CCN(c4ncc(C(=O)NC5CCCC5)cc4Cl)CC3)CC2)cc1` [compound 190] showed a half-inhibitory concentration (IC50) greater than 100 nM.

`O=C(NC1CCCCC1)c1cnc(N2CCN(C3CCN(Cc4ccc(Cl)cc4)CC3)CC2)c(Cl)c1` [compound 191]: the IC50 is greater than 100 nM.

`CCCNC(=O)c1cnc(N2CCN(C3CCN(Cc4ccc(Cl)cc4)CC3)CC2)c(Cl)c1` [compound 192] displayed a 50% inhibitory concentration (IC50) greater than 100 nM.

`N#Cc1ccc(C(=O)N2CCC(N3CCN(c4ncc(C(=O)NCC5CCCCC5)cc4Br)CC3)CC2)cc1` [compound 193] yielded an IC50 of 25 to 100 nM.

As to `O=C(NCC1CCCCC1)c1cnc(N2CCN(C3CCN(Cc4ccc(Cl)cc4)CC3)CC2)c(Br)c1` [compound 194], the IC50 lay within 25 to 100 nM.

The molecule `COCCNC(=O)c1cnc(N2CCN(C3CCN(Cc4ccc(Cl)cc4)CC3)[C@@H](CC(C)C)C2)c(Cl)c1` [compound 195] displayed a half-maximal inhibitory concentration (IC50) greater than 100 nM.

Take `CC(C)C[C@H]1CN(c2ncc(C(=O)NC(C)C)cc2Cl)CCN1C1CCN(Cc2ccc(Cl)cc2)CC1` [compound 196]: the 50% inhibitory concentration (IC50) was greater than 100 nM.

`CC(C)C[C@H]1CN(c2ncc(C(=O)NCC3CCCCC3)cc2Cl)CCN1C1CCN(Cc2ccc(Cl)cc2)CC1` [compound 197] displayed an IC50 of 25 to 100 nM.

Regarding `CNC(=O)c1cnc(N2CCN(C3CCN(Cc4ccc(Cl)cc4)CC3)[C@@H](CC(C)C)C2)c(Cl)c1` [compound 198], the concentration for half-maximal inhibition (IC50) was greater than 100 nM.

In turn, `CC(C)C[C@H]1CN(c2ncc(C(=O)NCc3ccc(F)c(F)c3)cc2Cl)CCN1C1CCN(Cc2ccc(Cl)cc2)CC1` [compound 199] showed an IC50 greater than 100 nM.

For `Cc1cc(C(=O)NCc2ccc(F)c(F)c2)cnc1N1CCN(C2CCN(Cc3ccc(Cl)cc3)CC2)CC1` [compound 200], the half-inhibitory concentration (IC50) is greater than 100 nM.

On to `Cc1cc(C(=O)NCc2ccc(Cl)c(Cl)c2)cnc1N1CCN(C2CCN(Cc3ccc(Cl)cc3)CC2)CC1` [compound 201], for which the half-maximal inhibitory concentration (IC50) was greater than 100 nM.

`CC1(N2CCN(c3ncc(C(=O)NCC4CCCCC4)cc3Cl)CC2)CCN(Cc2ccc(Cl)cc2)CC1` [compound 202]: the IC50 was 25 to 100 nM.

Molecule `Cc1cc(C(=O)NCC2CCCCC2)cnc1N1CCN(C2CCN(Cc3ccc(Cl)cc3)CC2)CC1` [compound 203] gave a half-maximal inhibitory concentration (IC50) greater than 100 nM.

`C[C@H]1CN(c2ccc(C(=O)NCc3ccc(F)c(F)c3)cc2Cl)CCN1C1(C)CCN(Cc2ccc(Cl)cc2)CC1` [compound 204] showed an IC50 of 25 to 100 nM.

As to `CNC(=O)c1cnc(N2CCN(C3(C)CCN(Cc4ccc(Cl)cc4)CC3)[C@@H](C)C2)c(Cl)c1` [compound 205], the IC50 was greater than 100 nM.
